Columns and labels:
[1] = biological target: T1, PI3Kδ (p110δ/p85α) (Homo sapiens, UniProt O00329); test: PI3K biochemical enzyme assay (Adapta universal kinase assay), p110 delta/p85 alpha; conditions: for inhibition at 1 µM / inhibition at 10 µM / inhibition at 0.1 µM: read-out: PI3Kδ % inhib; for IC50: Table 2, PI3k biochemical assays, read-out: p110δ/p85α IC50
T1 construct: purchased Invitrogen
Protocol: (§1) This example describes a method of obtaining in vitro activity data concerning the effect of compounds of on various PI3K isoforms. The effect of compounds on the kinase activity of Class I PI3Ks was measured at Invitrogen by using the Adapta® universal kinase assay. It was a homogenous, fluorescent based immunoassay for the detection of ADP produced by the kinase reaction. This assay can be divided into two phases: a kinase reaction phase, and an ADP detection phase. In the kinase reaction phase, all components required for the kinase reaction were added to the well, and the reaction was allowed to incubate for 60 minutes. After the reaction, a detection solution consisting of a europium labeled anti-ADP antibody, an Alexa Fluor® 647 labeled ADP tracer, and EDTA (to stop the kinase reaction) was added to the assay well. ADP formed by the kinase reaction (in the absence of an inhibitor) displaced the Alexa Fluor® 647 labeled ADP tracer from the antibody, resulting in a decrease in the TR-FRET signal.
(§2) ADP formation was determined by calculating the emission ratio from the assay well. The emission ratio was calculated by dividing the intensity of the tracer (acceptor) emission by the intensity of the Eu (donor) emission at 615 nm as shown in the equation below.
(§3) The Test Compounds were screened in 1% DMSO (final) in the well. All Substrate/Kinase Mixtures were diluted to a 2× working concentration in the appropriate Kinase Buffer as described below for the individual kinase:
The 2× p110 delta/p85 alpha/PIP2:PS mixture was prepared in 50 mM HEPES pH 7.5, 100 mM NaCl, 0.03% CHAPS, 3 mM mgCl2, 1 mM EGTA. The final 10 μL Kinase Reaction consisted of 0.35-2.6 ng p110 delta/p85 alpha and 50 μM PIP2:PS in 32.5 mM HEPES pH 7.5, 50 mM NaCl, 0.015% CHAPS, 1.5 mM mgCl2, 0.5 mM EGTA. After the 1 hour Kinase Reaction incubation, […] of Detection Mix was added.
(§4) The Detection mix consisted of EDTA (30 mM), Eu-anti-ADP antibody (30 nM) and ADP tracer. All ATP Solutions were diluted to a 4× working concentration in water and used at the Km apparent concentrations for each individual kinase.

[2] = biological target: T2, PI3Kβ (p110β/p85α) (Homo sapiens, UniProt P42338); test: PI3K biochemical enzyme assay (Adapta universal kinase assay), p110 beta/p85 alpha; conditions: for IC50: Table 2, PI3k biochemical assays, read-out: p110β/p85α IC50
T2 construct: purchased Invitrogen
Protocol: as §1, §2, §3
The 2× p 110beta/p85 alpha/PIP2:PS mixture was prepared in 50 mM HEPES pH 7.5, 100 mM NaCl, 0.03% CHAPS, 1 mM EGTA, 3 mM mgCl2, and 2 mM DTT. The final 10 μL Kinase Reaction consisted of 35.4 ng p110 beta/p85 alpha and 50 μM PIP2:PS. After the 1 hour Kinase Reaction incubation, 5 μL of Detection Mix was added.
as §4

T2 sequence (P42338 whole entry): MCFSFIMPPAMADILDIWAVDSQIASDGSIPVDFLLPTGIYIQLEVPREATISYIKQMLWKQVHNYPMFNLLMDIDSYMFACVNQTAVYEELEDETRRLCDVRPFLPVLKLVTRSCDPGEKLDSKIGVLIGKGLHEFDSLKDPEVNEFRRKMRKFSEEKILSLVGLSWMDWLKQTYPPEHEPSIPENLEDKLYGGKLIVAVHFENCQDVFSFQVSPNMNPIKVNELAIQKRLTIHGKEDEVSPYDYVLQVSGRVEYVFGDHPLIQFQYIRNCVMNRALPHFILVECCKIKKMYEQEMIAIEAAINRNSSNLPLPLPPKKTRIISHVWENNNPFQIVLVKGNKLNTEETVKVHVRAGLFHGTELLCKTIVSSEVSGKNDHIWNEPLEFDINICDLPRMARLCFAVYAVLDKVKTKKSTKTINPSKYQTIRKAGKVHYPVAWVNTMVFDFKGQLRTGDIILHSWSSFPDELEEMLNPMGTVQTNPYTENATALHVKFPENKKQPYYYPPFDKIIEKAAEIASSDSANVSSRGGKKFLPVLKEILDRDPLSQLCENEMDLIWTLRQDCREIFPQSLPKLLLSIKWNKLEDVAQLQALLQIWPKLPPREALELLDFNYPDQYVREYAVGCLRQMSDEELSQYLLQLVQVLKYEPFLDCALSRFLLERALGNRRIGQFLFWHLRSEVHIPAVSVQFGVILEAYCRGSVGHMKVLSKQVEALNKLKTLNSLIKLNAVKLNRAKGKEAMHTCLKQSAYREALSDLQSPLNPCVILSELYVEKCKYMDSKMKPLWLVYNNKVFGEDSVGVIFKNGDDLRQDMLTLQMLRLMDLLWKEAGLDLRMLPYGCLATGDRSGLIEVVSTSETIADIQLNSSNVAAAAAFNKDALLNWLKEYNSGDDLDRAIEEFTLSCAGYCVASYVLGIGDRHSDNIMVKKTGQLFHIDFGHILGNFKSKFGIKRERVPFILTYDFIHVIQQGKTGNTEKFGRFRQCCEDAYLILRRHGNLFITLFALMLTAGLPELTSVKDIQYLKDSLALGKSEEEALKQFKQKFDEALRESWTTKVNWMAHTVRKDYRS
T2 sequence (P27986 whole entry partner): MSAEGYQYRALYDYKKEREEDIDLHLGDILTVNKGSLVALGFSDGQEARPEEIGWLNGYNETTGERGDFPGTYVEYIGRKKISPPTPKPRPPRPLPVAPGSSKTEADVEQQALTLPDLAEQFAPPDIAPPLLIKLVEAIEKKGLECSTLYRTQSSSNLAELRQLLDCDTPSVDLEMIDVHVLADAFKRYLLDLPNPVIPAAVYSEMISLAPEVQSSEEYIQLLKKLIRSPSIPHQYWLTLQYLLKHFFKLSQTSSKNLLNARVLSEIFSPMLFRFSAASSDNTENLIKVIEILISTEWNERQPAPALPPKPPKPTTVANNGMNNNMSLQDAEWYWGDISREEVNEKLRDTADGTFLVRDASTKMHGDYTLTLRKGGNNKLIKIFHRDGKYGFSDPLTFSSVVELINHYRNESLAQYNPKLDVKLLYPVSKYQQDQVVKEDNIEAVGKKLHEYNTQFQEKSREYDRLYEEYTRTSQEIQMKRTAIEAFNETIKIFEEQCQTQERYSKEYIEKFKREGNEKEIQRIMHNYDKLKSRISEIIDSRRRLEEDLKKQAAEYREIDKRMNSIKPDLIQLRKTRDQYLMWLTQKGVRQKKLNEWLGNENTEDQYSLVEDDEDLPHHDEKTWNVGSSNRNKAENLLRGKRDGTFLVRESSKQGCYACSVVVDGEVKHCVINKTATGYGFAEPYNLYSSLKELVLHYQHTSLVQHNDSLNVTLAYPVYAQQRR
T1 sequence (O00329 whole entry): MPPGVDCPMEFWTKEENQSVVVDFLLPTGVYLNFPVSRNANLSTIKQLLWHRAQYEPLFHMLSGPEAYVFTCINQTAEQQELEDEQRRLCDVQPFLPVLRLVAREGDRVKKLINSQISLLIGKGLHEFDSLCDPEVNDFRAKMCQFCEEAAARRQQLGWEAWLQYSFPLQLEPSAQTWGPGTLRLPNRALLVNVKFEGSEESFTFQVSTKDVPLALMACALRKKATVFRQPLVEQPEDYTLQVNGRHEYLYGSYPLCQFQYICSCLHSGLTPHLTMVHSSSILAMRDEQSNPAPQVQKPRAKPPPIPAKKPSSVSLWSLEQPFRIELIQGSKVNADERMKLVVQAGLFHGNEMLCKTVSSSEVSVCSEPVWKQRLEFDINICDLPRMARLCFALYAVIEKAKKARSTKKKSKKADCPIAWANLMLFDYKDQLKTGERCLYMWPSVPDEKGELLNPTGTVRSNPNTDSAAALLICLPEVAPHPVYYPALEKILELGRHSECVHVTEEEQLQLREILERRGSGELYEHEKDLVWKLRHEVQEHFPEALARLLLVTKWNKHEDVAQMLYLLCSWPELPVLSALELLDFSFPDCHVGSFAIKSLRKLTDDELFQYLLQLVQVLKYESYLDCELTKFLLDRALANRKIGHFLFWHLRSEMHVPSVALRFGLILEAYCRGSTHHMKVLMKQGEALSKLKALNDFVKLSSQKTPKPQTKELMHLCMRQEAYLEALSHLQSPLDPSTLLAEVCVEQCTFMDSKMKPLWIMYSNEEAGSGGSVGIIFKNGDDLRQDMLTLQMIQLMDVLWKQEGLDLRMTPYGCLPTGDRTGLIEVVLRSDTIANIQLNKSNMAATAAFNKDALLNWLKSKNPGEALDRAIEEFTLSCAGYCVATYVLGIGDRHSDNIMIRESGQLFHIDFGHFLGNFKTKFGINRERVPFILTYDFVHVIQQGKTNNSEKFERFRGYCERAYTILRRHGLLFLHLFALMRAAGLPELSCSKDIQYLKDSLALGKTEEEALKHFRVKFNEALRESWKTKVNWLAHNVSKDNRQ
T1 sequence (P27986 whole entry partner): as the sequence (P27986 whole entry partner) above

Structure (SMILES)	inhibition at 1 µM [1]	inhibition at 10 µM [1]	IC50 [1]	inhibition at 1 µM ([2]; 1 μM, read-out: PI3Kβ % inhib)	inhibition at 10 µM ([2]; read-out: PI3Kβ % inhib)	IC50 [2]	inhibition at 0.1 µM [1]
Cc1cccc(-c2nc3ccccc3nc2C(C)Nc2ncnc3[nH]cnc23)c1 (stereo not drawn) [Compound Q3]	86%	100%	36 nM		25%	> 10000 nM	48%
CCC(Nc1ncnc2[nH]cnc12)c1nc2ccccc2nc1-c1ccccc1 (stereo not drawn) [Compound Q12]	83%	100%	17 nM		75%	> 10000 nM	71%
CCC(Nc1ncnc2[nH]cnc12)c1nc2cccc(F)c2nc1-c1ccccc1 (stereo not drawn) [Compound Q9]	86%	100%	37 nM		60%	> 10000 nM	72%
CC(Nc1ncnc2[nH]cnc12)c1nc2ccccc2nc1-c1ccccc1 (stereo not drawn) [Compound Q1]	85%	100%	14 nM		72%	> 10000 nM	74%

More lines, in order of falling IC50 [1], values ahead:

inhibition at 1 µM [1]	inhibition at 10 µM [1]	IC50 [1]	inhibition at 1 µM ([2]; 1 μM, read-out: PI3Kβ % inhib)	inhibition at 10 µM ([2]; read-out: PI3Kβ % inhib)	IC50 [2]	inhibition at 0.1 µM [1]	Structure (SMILES)
82%	100%	58 nM		8%	> 10000 nM	20%	CC(Nc1ncnc2[nH]cnc12)c1nc2ccccc2nc1-c1cc(F)cc(F)c1 (stereo not drawn) [Compound Q2, N-{1-[3-(3,5-difluorophenyl)quinoxalin-2-yl]ethyl}-9H-purin-6-amine]
69%	99%	2 nM	23%	85%	459 nM		Cc1cccc2nc(C(C)Nc3nc(N)nc4[nH]cnc34)c(-c3ccc(F)cc3)nc12 (stereo not drawn) [Compound Q5]
86%	100%	2 nM		77%	1130 nM	77%	Cc1cccc2nc(C(C)Nc3nc(N)nc4[nH]cnc34)c(-c3ccccc3)nc12 (stereo not drawn) [Compound Q4]

Source: patent publication US20140235643A1, “NOVEL QUINOXALINE INHIBITORS OF PI3K” (GILEAD CALISTOGA LLC, priority 2011, published 2014)
